Assay results published in patent US6150385A, “1,3,4-thiadiazoles useful for the treatment of CMV infections” (Pharmacia & Upjohn Company, priority 1999, dated 2000).

Target: T1, HCMV polymerase (Human cytomegalovirus, UniProt P08546)
T1 construct: made in house; host or cells: SF-9 insect cells infected with recombinant baculovirus
Assay: HCMV polymerase assay (scintillation proximity assay)
Assay type: biochemical
Conditions: percentage of inhibition at 25 μM concentration in CMV polymerase assay
In short: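 Values are percent inhibition at 25 μM, measured by scintillation proximity after capture of biotinylated poly(dA)-oligo(dT) (6 nM) extended with 90 nM 3H-dTTP. Recombinant SF-9-derived enzyme reacted 30 min at 25 or 37 °C in HEPES pH 7.5/KCl/MgCl2/BSA buffer, ±2 mM CHAPS, before EDTA termination.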

T1 sequence (P08546 whole entry): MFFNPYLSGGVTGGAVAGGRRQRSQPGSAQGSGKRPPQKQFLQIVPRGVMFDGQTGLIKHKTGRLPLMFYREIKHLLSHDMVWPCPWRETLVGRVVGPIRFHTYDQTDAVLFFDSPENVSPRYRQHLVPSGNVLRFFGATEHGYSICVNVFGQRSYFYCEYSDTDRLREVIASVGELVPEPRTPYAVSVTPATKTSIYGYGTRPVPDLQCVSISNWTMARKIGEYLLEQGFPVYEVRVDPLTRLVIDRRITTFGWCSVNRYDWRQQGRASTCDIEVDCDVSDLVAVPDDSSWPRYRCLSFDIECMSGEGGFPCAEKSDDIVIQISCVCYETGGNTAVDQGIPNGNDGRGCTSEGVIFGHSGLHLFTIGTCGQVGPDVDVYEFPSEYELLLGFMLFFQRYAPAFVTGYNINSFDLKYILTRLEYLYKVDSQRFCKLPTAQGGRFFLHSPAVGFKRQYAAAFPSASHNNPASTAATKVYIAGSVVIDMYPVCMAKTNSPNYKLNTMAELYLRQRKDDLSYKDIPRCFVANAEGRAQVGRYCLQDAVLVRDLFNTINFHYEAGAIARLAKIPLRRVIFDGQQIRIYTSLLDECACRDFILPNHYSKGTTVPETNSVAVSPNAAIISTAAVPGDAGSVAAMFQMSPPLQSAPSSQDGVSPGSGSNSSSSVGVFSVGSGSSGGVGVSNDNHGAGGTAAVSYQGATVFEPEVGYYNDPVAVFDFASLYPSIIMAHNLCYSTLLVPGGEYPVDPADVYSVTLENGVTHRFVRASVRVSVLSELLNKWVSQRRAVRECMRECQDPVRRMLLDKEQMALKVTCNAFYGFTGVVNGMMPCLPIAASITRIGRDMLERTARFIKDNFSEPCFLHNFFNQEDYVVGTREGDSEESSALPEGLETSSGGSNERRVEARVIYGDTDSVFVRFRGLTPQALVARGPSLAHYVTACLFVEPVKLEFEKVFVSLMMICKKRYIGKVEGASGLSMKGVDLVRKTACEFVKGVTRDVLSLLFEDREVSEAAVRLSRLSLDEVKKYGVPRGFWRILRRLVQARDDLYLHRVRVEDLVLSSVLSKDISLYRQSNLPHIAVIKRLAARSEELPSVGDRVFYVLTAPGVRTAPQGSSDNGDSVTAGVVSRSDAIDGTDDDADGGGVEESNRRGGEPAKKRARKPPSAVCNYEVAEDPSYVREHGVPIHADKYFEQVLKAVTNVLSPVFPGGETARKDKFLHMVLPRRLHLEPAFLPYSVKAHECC

Compound	inhibition at 25 µM [%]	% Inhib [%]
O=C(Nc1nnc(NCc2ccco2)s1)c1c(Cl)cccc1Cl [compound 174, 2,6-dichloro-N-{5-[(2-furylmethyl)amino]-1,3,4-thiadiazol-2-yl}benzamide]	49.5	–
CCCCCCCCCCCNc1nnc(NC(=O)c2cc(F)cc(F)c2)s1 [compound 175, 3,5-difluoro-N-[5-(undecylamino)-1,3,4-thiadiazol-2-yl]benzamide]	49.4	–
CC(C)c1cc(C(C)C)c(C(=O)Nc2nnc(NCC(c3ccccc3)c3ccccc3)s2)c(C(C)C)c1 [compound 176, N-{5-[(2,2-diphenylethyl)amino]-1,3,4-thiadiazol-2-yl}-2,4,6-triisopropylbenzamide]	49.4	–
CCOc1ccc2ccccc2c1C(=O)Nc1nnc(NCC2CC2)s1 [compound 177, N-{5-[(cyclopropylmethyl)amino]-1,3,4-thiadiazol-2-yl}-2-ethoxy-1-naphthamide]	49	–
O=C(/C=C/c1ccccc1)Nc1nnc(NCc2ccc3c(c2)OCO3)s1 [compound 178, (E)-N-{5-[(1,3-benzodioxol-5-ylmethyl)amino]-1,3,4-thiadiazol-2-yl}-3-phenyl-2-propenamide]	49	–
CCCCCCCC/C=C/CCCCCCCC(=O)Nc1nnc(NCCNc2ccccc2)s1 [compound 179, (E)-N-{5-[(2-anilinoethyl)amino]-1,3,4-thiadiazol-2-yl}-9-octadecenamide]	48.5	–
O=C(Nc1nnc(NCc2ccc3c(c2)OCO3)s1)c1cc2ccccc2s1 [compound 180, N-{5-[(1,3-benzodioxol-5-ylmethyl)amino]-1,3,4-thiadiazol-2-yl}-1-benzothiophene-2-carboxamide]	48.4	–
Cc1ccc(C(=O)Nc2nnc(NCc3ccc4c(c3)OCO4)s2)cc1 [compound 181, N-{5-[(1,3-benzodioxol-5-ylmethyl)amino]1,3,4-thiadiazol-2-yl}-4-methylbenzamide]	48.3	–
O=C(Nc1nnc(NCC(c2ccccc2)c2ccccc2)s1)c1ccc(F)cc1F [compound 182, N-{5-[(2,2-diphenylethyl)amino]-1,3,4-thiadiazol-2-yl}-2,4-difluorobenzamide]	48.2	–
O=C(CCCCCl)Nc1nnc(NCCC(c2ccccc2)c2ccccc2)s1 [compound 183, 5-chloro-N-{5-[(3,3-diphenylpropyl)amino]-1,3,4-thiadiazol-2-yl}pentanamide]	48.1	–
O=C(Nc1nnc(NCCCN2CCCC2=O)s1)c1ccc2c(c1)C(=O)OC2=O [compound 184, 1,3-dioxo-N-(5-{[3-(2-oxo-1-pyrrolidinyl)propyl]amino}-1,3,4-thiadiazol-2-yl)-1,3-dihydro-2-benzofuran-5-carboxamide]	47.8	–
O=C(/C=C/c1ccccc1Cl)Nc1nnc(NCCc2cccs2)s1 [compound 185, (E)-3-(2-chlorophenyl)-N-(5-{[2-(2-thienyl)ethyl]amino}-1,3,4-thiadiazol-2-yl)-2-propenamide]	47.6	–
O=C(CCCCCl)Nc1nnc(NCC(c2ccccc2)c2ccccc2)s1 [compound 186, 5-chloro-N-{5-[(2,2-diphenylethyl)amino]-1,3,4-thiadiazol-2-yl}pentanamide]	47.4	–
O=C(Nc1nnc(NCC(c2ccccc2)c2ccccc2)s1)c1cc2ccccc2s1 [compound 187, N-{5-[(2,2-diphenylethyl)amino]-1,3,4-thiadiazol-2-yl}-1-benzothiophene-2-carboxamide]	47.2	–
O=C(Nc1nnc(NCC(c2ccccc2)c2ccccc2)s1)c1cc(F)cc(F)c1 [compound 188, N-{5-[(2,2-diphenylethyl)amino]-1,3,4-thiadiazol-2-yl}-3,5-difluorobenzamide]	47.2	–
O=C(Nc1nnc(NCCCNC2CCCCC2)s1)c1ccc(S(=O)(=O)F)cc1 [compound 189, 4-{[(5-{[3-(cyclohexylamino)propyl]amino}-1,3,4-thiadiazol-2-yl)amino]carbonyl}benzenesulfonyl fluoride]	–	47.1
O=C(Nc1nnc(NCc2cccc3ccccc23)s1)c1cccc([N+](=O)[O-])c1 [compound 190, N-{5-[(1-naphthylmethyl)amino]-1,3,4-thiadiazol-2-yl}-3-nitrobenzamide]	47.1	–
O=C(Nc1nnc(NCCCN2CCCC2=O)s1)c1ccc(Cl)c(Cl)c1 [compound 191, 3,4-dichloro-N-(5-{[3-(2-oxo-1-pyrrolidinyl)propyl]amino}-1,3,4-thiadiazol-2-yl)benzamide]	47.1	–
O=C(Nc1nnc(NC2CCCc3ccccc32)s1)c1ccc([N+](=O)[O-])o1 (stereo not shown) [compound 192, 5-nitro-N-[5-(1,2,3,4-tetrahydro-1-naphthalenylamino)-1,3,4-thiadiazol-2-yl]-2-furamide]	47	–
CCSCCNc1nnc(NC(=O)/C=C/c2ccccc2Cl)s1 [compound 193, (E)-3-(2-chlorophenyl)-N-(5-{[2-(ethylsulfanyl)ethyl]amino}-1,3,4-thiadiazol-2-yl)-2-propenamide]	46.9	–
CCCCCCCCCCCNc1nnc(NC(=O)c2ccc(Br)cc2)s1 [compound 194, 4-bromo-N-[5-(undecylamino)-1,3,4-thiadiazol-2-yl]benzamide]	46.8	–
O=C(Nc1nnc(NCc2cccc3ccccc23)s1)c1ccc(S(=O)(=O)F)cc1 [compound 195, 4-[({5-[(1-naphthylmethyl)amino]-1,3,4-thiadiazol-2-yl}amino)carbonyl]benzenesulfonyl fluoride]	–	46.7
O=C(/C=C/c1ccccc1Cl)Nc1nnc(NC2CCCCCC2)s1 [compound 196, (E)-3-(2-chlorophenyl)-N-[5-(cycloheptylamino) 1,3,4-thiadiazol-2-yl]-2-propenamide]	46.2	–
O=C(Nc1nnc(NCCNc2ccccc2)s1)c1ccc(S(=O)(=O)F)cc1 [compound 204, 4-[({5-[(2-anilinoethyl)amino]-1,3,4-thiadiazol-2-yl}amino)carbonyl]benzenesulfonyl fluoride]	–	45.0

More lines, main results first:

inhibition at 25 µM [%]	Compound	% Inhib [%]
46.2	O=C(Nc1nnc(NCCCCc2ccccc2)s1)c1ccc(F)cc1F [compound 197, 2,4-difluoro-N-{5-[(4-phenylbutyl)amino]-1,3,4-thiadiazol-2-yl}benzamide]	–
46	O=C(Nc1nnc(NCCSc2ccccc2)s1)c1ccc(I)cc1 [compound 198, 4-iodo-N-(5-{[2-(phenylsulfanyl)ethyl]amino}-1,3,4-thiadiazol-2-yl)benzamide]	–
46	CCCCCCCC/C=C/CCCCCCCC(=O)Nc1nnc(NC2CCC2)s1 [compound 199, (E)-N-[5-(cyclobutylamino)-1,3,4-thiadiazol-2-yl]-9-octadecenamide]	–
45.3	O=C(CCCCCl)Nc1nnc(NCc2cccc3ccccc23)s1 [compound 200, 5-chloro-N-{5-[(1-naphthylmethyl)amino]-1,3,4-thiadiazol-2-yl}pentanamide]	–
45.3	O=C(Nc1nnc(NC2CCCCCC2)s1)c1cccc([N+](=O)[O-])c1 [compound 201, N-[5-(cycloheptylamino)-1,3,4-thiadiazol-2-yl]-3-nitrobenzamide]	–
45	O=C(Nc1nnc(NCCCn2ccnc2)s1)c1ccc(Cl)c(Cl)c1 [compound 202, 3,4-dichloro-N-(5-{[3-(1H-imidazol-1-yl)propyl]amino}-1,3,4-thiadiazol-2-yl)benzamide]	–
45	O=C(Nc1nnc(NCCCN2CCCC2=O)s1)c1ccc(I)cc1 [compound 203, 4-iodo-N-(5-{[3-(2-oxo-1-pyrrolidinyl)propyl]amino}-1,3,4-thiadiazol-2-yl)benzamide]	–
44.9	O=C(Nc1nnc(NCCSc2ccccc2)s1)c1ccc(F)cc1F [compound 205, 2,4-difluoro-N-(5-{[2-(phenylsulfanyl)ethyl]amino}-1,3,4-thiadiazol-2-yl)benzamide]	–
44.9	CCOc1ccc2ccccc2c1C(=O)Nc1nnc(NCCSc2ccccc2)s1 [compound 206, 2-ethoxy-N-(5-{[2-(phenylsulfanyl)ethyl]amino}-1,3,4-thiadiazol-2-yl)-1-naphthamide]	–
44.7	CCOc1ccc2ccccc2c1C(=O)Nc1nnc(NCc2ccc(Cl)c(Cl)c2)s1 [compound 207, N-{5-[(3,4-dichlorobenzyl)amino]-1,3,4-thiadiazol-2-yl}-2-ethoxy-1-naphthamide]	–
44.7	O=C(/C=C/c1ccccc1Cl)Nc1nnc(NCCCN2CCCC2=O)s1 [compound 208, (E)-3-(2-chlorophenyl)-N-(5-{[3-(2-oxo-1-pyrrolidinyl)propyl]amino}-1,3,4-thiadiazol-2-yl)-2-propenamide]	–
44.7	CC1(C)C2CC[C@@H](CNc3nnc(NC(=O)c4ccc([N+](=O)[O-])o4)s3)C1C2 (stereo partly drawn) [compound 209, N-[5-({[(2R)-6,6-dimethylbicyclo[3.1.1]hept-2-yl]methyl}amino)-1,3,4-thiadiazol-2-yl]-5-nitro-2-furamide]	–
44.6	O=C(/C=C/c1ccccc1Cl)Nc1nnc(NCCc2ccccc2)s1 [compound 210, (E)-3-(2-chlorophenyl)-N-[5-(phenethylamino)-1,3,4-thiadiazol-2-yl]-2-propenamide]	–
44.3	CCSCCNc1nnc(NC(=O)/C=C/c2ccccc2)s1 [compound 211, (E)-N-(5-{[2-(ethylsulfanyl)ethyl]amino}-1,3,4-thiadiazol-2-yl)-3-phenyl-2-propenamide]	–
44.2	O=C(Nc1nnc(NCCCNC2CCCCC2)s1)c1ccc(I)cc1 [compound 212, N-(5-{[3-(cyclohexylamino)propyl]amino}-1,3,4-thiadiazol-2-yl)-4-iodobenzamide]	–
44.2	CCOc1ccc2ccccc2c1C(=O)Nc1nnc(NCc2ccco2)s1 [compound 213, 2-ethoxy-N-{5-[(2-furylmethyl)amino]-1,3,4-thiadiazol-2-yl}-1-naphthamide]	–
